Results on one compound are retold here after paper PMC5218480 (PLoS ONE, 2017).

This assay concerns MV-4-11 cells. In words: Gene expression microarray analysis (Affymetrix PrimeView) and GSEA. As to conditions: ProbeSet 11759094_a_at; LIST D. The assay is classed as cell-based, human. Set-up: RFU PODN (11730768_x_at) / Fold change /veh PODN (11730768_x_at) / RFU LINC00158 (11744669_a_at) / Fold change /veh LINC00158 (11744669_a_at) / RFU DUSP10 (11751237_a_at) / Fold change /veh DUSP10 (11751237_a_at) / RFU ID3 (11757404_x_at) / Fold change /veh ID3 (11757404_x_at) / RFU PLEKHG5 (11737974_s_at) / Fold change /veh PLEKHG5 (11737974_s_at) / RFU LRRC4B (11730491_at) / Fold change /veh LRRC4B (11730491_at) / RFU GIMAP4 (11747438_a_at) / Fold change /veh GIMAP4 (11747438_a_at) / RFU KRT8 (11758183_x_at) / Fold change /veh KRT8 (11758183_x_at) / RFU CNN1 (11734310_a_at) / Fold change /veh CNN1 (11734310_a_at) / RFU VPS37D (11726825_at) / Fold change /veh VPS37D (11726825_at) / RFU C10orf10 (11716522_x_at) / Fold change /veh C10orf10 (11716522_x_at) / RFU KIR2DL2 /// KIR2DL4 /// KIR2DL5A /// KIR2DL5B /// KIR2DS1 /// KIR2DS2 /// KIR2DS3 /// KIR2DS4 /// KIR3DL3 /// KIR3DL3 /// KIR3DS1 (11738374_at) / Fold change /veh KIR2DL2 /// KIR2DL4 /// KIR2DL5A /// KIR2DL5B /// KIR2DS1 /// KIR2DS2 /// KIR2DS3 /// KIR2DS4 /// KIR3DL3 /// KIR3DL3 /// KIR3DS1 (11738374_at) / RFU C1QL1 (11718748_at) / Fold change /veh C1QL1 (11718748_at) / RFU TMPRSS4 (11747572_a_at) / Fold change /veh TMPRSS4 (11747572_a_at) / RFU HAMP (11756126_x_at) / Fold change /veh HAMP (11756126_x_at) / RFU RNFT2 (11725882_a_at) / Fold change /veh RNFT2 (11725882_a_at) / RFU NR4A2 (11747474_a_at) / Fold change /veh NR4A2 (11747474_a_at) / RFU ABCC12 (11746883_a_at) / Fold change /veh ABCC12 (11746883_a_at) / RFU TMEM136 (11760407_x_at) / Fold change /veh TMEM136 (11760407_x_at) / RFU CLDN22 /// WWC2 (11732394_at) / Fold change /veh CLDN22 /// WWC2 (11732394_at) / RFU HLA-DPB1 (11760878_x_at) / Fold change /veh HLA-DPB1 (11760878_x_at) / RFU SPINT1 (11716480_a_at) / Fold change /veh SPINT1 (11716480_a_at) / RFU GAP43 (11754022_s_at) / Fold change /veh GAP43 (11754022_s_at) / RFU A4GNT (11735810_at) / Fold change /veh A4GNT (11735810_at) / RFU PRB3 (11715151_x_at) / Fold change /veh PRB3 (11715151_x_at) / RFU TUBB4B (11761932_at) / Fold change /veh TUBB4B (11761932_at) / RFU CAPN14 (11732068_a_at) / Fold change /veh CAPN14 (11732068_a_at) / RFU TMCC2 (11721928_a_at) / Fold change /veh TMCC2 (11721928_a_at) / RFU IRGQ (11745062_a_at) / Fold change /veh IRGQ (11745062_a_at) / RFU FAM174B (11720279_a_at) / Fold change /veh FAM174B (11720279_a_at) / RFU TMPRSS4 (11748680_a_at) / Fold change /veh TMPRSS4 (11748680_a_at) / RFU FAM212B (11763350_a_at) / Fold change /veh FAM212B (11763350_a_at) / RFU PLEKHG5 (11743358_a_at) / Fold change /veh PLEKHG5 (11743358_a_at) / RFU ZSCAN30 (11745921_a_at) / Fold change /veh ZSCAN30 (11745921_a_at) / RFU CMKLR1 (11741424_a_at) / Fold change /veh CMKLR1 (11741424_a_at) / RFU LOC101060620 /// MAPK8IP1 (11723275_at) / Fold change /veh LOC101060620 /// MAPK8IP1 (11723275_at) / RFU SPTSSB (11747773_x_at) / Fold change /veh SPTSSB (11747773_x_at) / RFU PRSS12 (11739890_at) / Fold change /veh PRSS12 (11739890_at) / RFU BIN1 (11741810_x_at) / Fold change /veh BIN1 (11741810_x_at) / RFU WNT11 (11732464_a_at) / Fold change /veh WNT11 (11732464_a_at) / RFU C10orf10 (11716521_a_at) / Fold change /veh C10orf10 (11716521_a_at) / RFU C5orf56 (11738089_at) / Fold change /veh C5orf56 (11738089_at) / RFU CYB561 (11721691_x_at) / Fold change /veh CYB561 (11721691_x_at) / RFU ANKRD19P (11752326_a_at) / Fold change /veh ANKRD19P (11752326_a_at) / RFU OR2T12 /// OR2T33 /// OR2T8 (11738714_s_at) / Fold change /veh OR2T12 /// OR2T33 /// OR2T8 (11738714_s_at) / RFU VCAN (11748164_a_at) / Fold change /veh VCAN (11748164_a_at) / RFU JSRP1 (11732532_at) / Fold change /veh JSRP1 (11732532_at) / RFU KRTAP10-11 (11738290_x_at) / Fold change /veh KRTAP10-11 (11738290_x_at) / RFU MYO3A (11730013_a_at) / Fold change /veh MYO3A (11730013_a_at) / RFU EBF3 (11725865_a_at) / Fold change /veh EBF3 (11725865_a_at) / RFU CAMK2N1 (11719241_x_at) / Fold change /veh CAMK2N1 (11719241_x_at) / RFU C5orf56 (11738088_a_at) / Fold change /veh C5orf56 (11738088_a_at) / RFU OLFML3 (11715873_a_at) / Fold change /veh OLFML3 (11715873_a_at) / RFU LOC100653217 /// NTM (11731650_a_at) / Fold change /veh LOC100653217 /// NTM (11731650_a_at) / RFU MAPK11 (11762145_a_at) / Fold change /veh MAPK11 (11762145_a_at) / RFU FIZ1 (11724087_x_at) / Fold change /veh FIZ1 (11724087_x_at) / RFU OASL (11726364_x_at) / Fold change /veh OASL (11726364_x_at) / RFU SOX15 (11748057_x_at) / Fold change /veh SOX15 (11748057_x_at) / RFU CD79A (11719716_a_at) / Fold change /veh CD79A (11719716_a_at) / RFU HIST1H1D (11736915_at) / Fold change /veh HIST1H1D (11736915_at) / RFU CASKIN2 (11723855_a_at) / Fold change /veh CASKIN2 (11723855_a_at) / RFU LOC730098 (11760151_x_at) / Fold change /veh LOC730098 (11760151_x_at) / RFU OR4N2 (11742367_at) / Fold change /veh OR4N2 (11742367_at) / RFU PRRT2 (11749266_a_at) / Fold change /veh PRRT2 (11749266_a_at) / RFU SNX32 (11753110_a_at) / Fold change /veh SNX32 (11753110_a_at) / RFU CDHR5 (11726645_a_at) / Fold change /veh CDHR5 (11726645_a_at) / RFU RCAN1 (11760418_a_at) / Fold change /veh RCAN1 (11760418_a_at) / RFU FAM167A (11723789_a_at) / Fold change /veh FAM167A (11723789_a_at) / RFU FAM26E (11764081_at) / Fold change /veh FAM26E (11764081_at) / RFU ISYNA1 (11749810_s_at) / Fold change /veh ISYNA1 (11749810_s_at) / RFU ACY1 (11761880_at) / Fold change /veh ACY1 (11761880_at) / RFU 11764098_at / Fold change /veh 11764098_at / RFU SAMD14 (11745864_x_at) / Fold change /veh SAMD14 (11745864_x_at) / RFU NPB (11741838_a_at) / Fold change /veh NPB (11741838_a_at) / RFU TMPRSS6 (11731388_a_at) / Fold change /veh TMPRSS6 (11731388_a_at) / RFU KRTAP10-2 (11738614_at) / Fold change /veh KRTAP10-2 (11738614_at) / RFU ARHGAP8 /// PRR5-ARHGAP8 (11727945_x_at) / Fold change /veh ARHGAP8 /// PRR5-ARHGAP8 (11727945_x_at) / RFU KRTAP5-7 /// NADSYN1 (11734609_at) / Fold change /veh KRTAP5-7 /// NADSYN1 (11734609_at) / RFU RASL12 (11751679_a_at) / Fold change /veh RASL12 (11751679_a_at) / RFU CDKN2B (11736163_a_at) / Fold change /veh CDKN2B (11736163_a_at) / RFU PRF1 (11729649_at) / Fold change /veh PRF1 (11729649_at) / RFU, ZNF638 /// ZNF638-IT1 / Fold change vs veh, ZNF638 /// ZNF638-IT1 / RFU, PANK3 / Fold change vs veh, PANK3 / RFU, SH3YL1 / Fold change vs veh, SH3YL1 / RFU, ZEB2 / Fold change vs veh, ZEB2 / RFU, NRIP1 / Fold change vs veh, NRIP1 / RFU, PTTG1IP / Fold change vs veh, PTTG1IP / RFU, CAPN2 / Fold change vs veh, CAPN2 / RFU, MED14 / Fold change vs veh, MED14 / RFU, SNORA58 / Fold change vs veh, SNORA58 / RFU, C1orf63 / Fold change vs veh, C1orf63 / RFU, LRRFIP1 / Fold change vs veh, LRRFIP1 / RFU, NDUFAF7 / Fold change vs veh, NDUFAF7 / RFU, SLC12A2 / Fold change vs veh, SLC12A2 / RFU, IBTK / Fold change vs veh, IBTK / RFU, ESF1 / Fold change vs veh, ESF1 / Fold change vs veh, TMEM50B / RFU, TAOK1 / Fold change vs veh, TAOK1 / RFU, ACBD3 / Fold change vs veh, ACBD3 / RFU, TMA16 / Fold change vs veh, TMA16 / RFU, RWDD3 / Fold change vs veh, RWDD3 / RFU, BCAT1 / Fold change vs veh, BCAT1 / RFU, EDEM3 / Fold change vs veh, EDEM3 / RFU, TMEM33 / Fold change vs veh, TMEM33 / RFU, WDR75 / Fold change vs veh, WDR75 / RFU, AHCTF1 / Fold change vs veh, AHCTF1 / RFU, TFRC / Fold change vs veh, TFRC / RFU, ZDHHC17 / Fold change vs veh, ZDHHC17 / RFU, NOM1 / Fold change vs veh, NOM1 / RFU, ARL8B / Fold change vs veh, ARL8B / RFU, ZBTB11 / Fold change vs veh, ZBTB11 / RFU, TAMM41 / Fold change vs veh, TAMM41 / RFU, KIAA1704 /// LOC100996395 / Fold change vs veh, KIAA1704 /// LOC100996395 / RFU, ING1 / Fold change vs veh, ING1 / RFU, TRMT61B / Fold change vs veh, TRMT61B / RFU, FUBP3 / Fold change vs veh, FUBP3 / RFU, TP53 / Fold change vs veh, TP53 / RFU, TNKS2 / Fold change vs veh, TNKS2 / RFU, ZFP14 / Fold change vs veh, ZFP14 / RFU, ACTR2 / Fold change vs veh, ACTR2 / RFU, PPP3R1 / Fold change vs veh, PPP3R1 / RFU, PIK3R1 / Fold change vs veh, PIK3R1 / RFU, HNRNPA1 / Fold change vs veh, HNRNPA1 / RFU, RNF170 / Fold change vs veh, RNF170 / RFU, ZNF28 / Fold change vs veh, ZNF28 / RFU, RNGTT / Fold change vs veh, RNGTT / RFU, OGT / Fold change vs veh, OGT / RFU, BRD1 / Fold change vs veh, BRD1 / RFU, MARS / Fold change vs veh, MARS / RFU, ZNF655 / Fold change vs veh, ZNF655 / RFU, FAHD1 / Fold change vs veh, FAHD1 / RFU, BDP1 / Fold change vs veh, BDP1 / RFU, LRRCC1 / Fold change vs veh, LRRCC1 / RFU, ARID1A / Fold change vs veh, ARID1A / RFU, ZNF146 / Fold change vs veh, ZNF146 / RFU, ZNF330 / Fold change vs veh, ZNF330 / RFU, GPN3 / Fold change vs veh, GPN3 / RFU, C9orf123 / Fold change vs veh, C9orf123 / RFU, N4BP2L2 / Fold change vs veh, N4BP2L2 / RFU, ARFIP1 / Fold change vs veh, ARFIP1 / RFU, FAM179B / Fold change vs veh, FAM179B / RFU, BCL10 / Fold change vs veh, BCL10 / RFU, UHRF1BP1L / Fold change vs veh, UHRF1BP1L / RFU, BET1 / Fold change vs veh, BET1 / RFU, CNOT2 / Fold change vs veh, CNOT2 / RFU, ZNF268 / Fold change vs veh, ZNF268 / Fold change vs veh, ZNF507 / RFU, DGCR2 / Fold change vs veh, DGCR2 / RFU, WDSUB1 / Fold change vs veh, WDSUB1 / Fold change vs veh, HSP90B1 /// MIR3652 / RFU, ADSS / Fold change vs veh, ADSS / RFU, GK / Fold change vs veh, GK / RFU, ZNF148 / Fold change vs veh, ZNF148 / RFU, TAF9 / Fold change vs veh, TAF9 / RFU, SLC1A5 / Fold change vs veh, SLC1A5 / RFU, SLMO2 / Fold change vs veh, SLMO2 / RFU, ABCC4 / Fold change vs veh, ABCC4 / RFU, LOC101060439 /// RAP1B / Fold change vs veh, LOC101060439 /// RAP1B / RFU, RFX7 / Fold change vs veh, RFX7 / RFU, GTPBP10 / Fold change vs veh, GTPBP10 / RFU, CNEP1R1 / Fold change vs veh, CNEP1R1 / RFU, BIVM-ERCC5 /// ERCC5 / Fold change vs veh, BIVM-ERCC5 /// ERCC5 / RFU, ILF3 / Fold change vs veh, ILF3 / RFU 11762660_at / Fold change /veh 11762660_at / RFU VCAN (11757783_s_at) / Fold change /veh VCAN (11757783_s_at) / RFU DDX43 (11728927_at) / Fold change /veh DDX43 (11728927_at) / RFU KRT8 (11758188_x_at) / Fold change /veh KRT8 (11758188_x_at) / RFU NKD1 (11759106_at) / Fold change /veh NKD1 (11759106_at) / RFU SRD5A1 (11742802_a_at) / Fold change /veh SRD5A1 (11742802_a_at) / RFU TPSAB1 /// TPSB2 (11721975_s_at) / Fold change /veh TPSAB1 /// TPSB2 (11721975_s_at) / RFU GSTM3 (11746129_a_at) / Fold change /veh GSTM3 (11746129_a_at) / RFU IL23R (11737362_x_at) / Fold change /veh IL23R (11737362_x_at) / RFU TMEM51 (11727254_a_at) / Fold change /veh TMEM51 (11727254_a_at) / RFU PIWIL2 (11732686_x_at) / Fold change /veh PIWIL2 (11732686_x_at) / RFU ORM1 (11744905_x_at) / Fold change /veh ORM1 (11744905_x_at) / RFU CCDC152 (11743942_at) / Fold change /veh CCDC152 (11743942_at) / RFU ECM1 (11717891_a_at) / Fold change /veh ECM1 (11717891_a_at) / RFU IL23R (11748794_a_at) / Fold change /veh IL23R (11748794_a_at) / RFU TNFAIP8L3 (11732012_x_at) / Fold change /veh TNFAIP8L3 (11732012_x_at) / RFU MBOAT4 (11741988_at) / Fold change /veh MBOAT4 (11741988_at) / RFU 11764193_at / Fold change /veh 11764193_at / RFU TMEM53 (11763286_at) / Fold change /veh TMEM53 (11763286_at) / RFU MAGEB2 (11727129_at) / Fold change /veh MAGEB2 (11727129_at) / RFU TMEM200A (11744735_a_at) / Fold change /veh TMEM200A (11744735_a_at) / RFU CCDC152 (11751479_a_at) / Fold change /veh CCDC152 (11751479_a_at) / RFU FAM211A (11726209_a_at) / Fold change /veh FAM211A (11726209_a_at) / RFU RGS16 (11746705_a_at) / Fold change /veh RGS16 (11746705_a_at) / RFU VCAN (11755009_s_at) / Fold change /veh VCAN (11755009_s_at) / RFU RHOB (11743442_s_at) / Fold change /veh RHOB (11743442_s_at) / RFU RGS16 (11720943_a_at) / Fold change /veh RGS16 (11720943_a_at) / RFU RGS16 (11720944_at) / Fold change /veh RGS16 (11720944_at) / RFU, VPS4B / Fold change vs veh, VPS4B / RFU, CREB1 / Fold change vs veh, CREB1 / RFU, DNAJC13 / Fold change vs veh, DNAJC13 / RFU, GNAQ / Fold change vs veh, GNAQ / RFU, CDK5R1 / Fold change vs veh, CDK5R1 / RFU, ZRANB3 / Fold change vs veh, ZRANB3 / RFU, CUL4A / Fold change vs veh, CUL4A / RFU, CCNY / Fold change vs veh, CCNY / RFU, UFL1 / Fold change vs veh, UFL1 / RFU, COG3 / Fold change vs veh, COG3 / RFU, DIAPH2 / Fold change vs veh, DIAPH2 / RFU, SKA2 / Fold change vs veh, SKA2 / RFU, AFF3 / Fold change vs veh, AFF3 / RFU, LMF1 / Fold change vs veh, LMF1 / RFU, IPO11 / Fold change vs veh, IPO11 / RFU, DFFB / Fold change vs veh, DFFB / RFU, FOXP1 / Fold change vs veh, FOXP1 / RFU, CARD8 / Fold change vs veh, CARD8 / RFU, STRN3 / Fold change vs veh, STRN3 / RFU, ADK / Fold change vs veh, ADK / RFU, RASSF2 / Fold change vs veh, RASSF2 / RFU, WIPF1 / Fold change vs veh, WIPF1 / RFU, LARP1B / Fold change vs veh, LARP1B / RFU, RASA1 / Fold change vs veh, RASA1 / RFU, RB1 / Fold change vs veh, RB1 / RFU, PPFIA1 / Fold change vs veh, PPFIA1 / RFU, MAT2A / Fold change vs veh, MAT2A / RFU, CCT5 / Fold change vs veh, CCT5 / RFU, WDR92 / Fold change vs veh, WDR92 / RFU, CUX1 / Fold change vs veh, CUX1 / RFU, TTC7A / Fold change vs veh, TTC7A / RFU, TMEM135 / Fold change vs veh, TMEM135 / RFU, DEPTOR / Fold change vs veh, DEPTOR / RFU, CPM / Fold change vs veh, CPM / RFU, DNAJB6 / Fold change vs veh, DNAJB6 / RFU, CACNA2D3 / Fold change vs veh, CACNA2D3 / RFU, DTX4 / Fold change vs veh, DTX4 / RFU, TFCP2 / Fold change vs veh, TFCP2 / RFU, GMCL1 /// GMCL1P1 / Fold change vs veh, GMCL1 /// GMCL1P1 / RFU, AEBP2 / Fold change vs veh, AEBP2 / RFU, SNHG1 /// SNORD22 /// SNORD25 /// SNORD26 /// SNORD27 /// SNORD28 /// SNORD29 /// SNORD31 / Fold change vs veh, SNHG1 /// SNORD22 /// SNORD25 /// SNORD26 /// SNORD27 /// SNORD28 /// SNORD29 /// SNORD31 / Fold change (Aza/veh), C12orf56 (ProbeSet 11735607_a_at) / Fold change (ACY-1035/veh), C12orf56 (ProbeSet 11735607_a_at) / Fold change (Aza/veh), FGFR1OP (ProbeSet 11751329_s_at) / Fold change (ACY-1035/veh), FGFR1OP (ProbeSet 11751329_s_at) / Fold change (Aza/veh), VPS36 (ProbeSet 11739960_a_at) / Fold change (ACY-1035/veh), VPS36 (ProbeSet 11739960_a_at) / RFU SYPL1 (11715823_x_at) / Fold change /veh SYPL1 (11715823_x_at) / RFU IGFBP7 (11715501_s_at) / Fold change /veh IGFBP7 (11715501_s_at) / RFU REEP3 (11722064_at) / Fold change /veh REEP3 (11722064_at) / RFU IGLL1 (11728026_x_at) / Fold change /veh IGLL1 (11728026_x_at): dose or concentration left out as unconfirmed.

For the compound `Nc1ncn([C@@H]2O[C@H](CO)[C@@H](O)[C@H]2O)c(=O)n1` [azacitidine], the “Fold change vs veh, GNAQ” value is on record as 0.76.
